Experimental data as given in patent publication US9192569B2, “Formulations for infusion of type B lantibiotics” (Novacta Biosystems Limited, priority 2010, dated 2015).

Legend:
[1] = In vivo plasma half-life in mice; conditions: mouse, IV, 9.3 mL/Kg of 3.2 mg/mL solution of Example 1, LC-MS
Protocol: In vivo Plasma Half-life of Compounds of the Present Invention in Mice.
The in vivo half-life of Compound 1 in mice was determined by measurement of its plasma concentrations at various time points following IV dosing. 18 male CD-1 mice aged 7-9 weeks were dosed IV with a 9.3 mL/Kg dose of a 3.2 mg/mL solution of Example 1 in 15% hydroxyl-propyl-beta-cyclodextrin/4.4% glucose/1 mM potassium phosphate (pH=7.6). Plasma samples were obtained at 10, 20, 30, 60, 120 and 240 min post-dose, sampling from 3 animals at each time point. Concentrations of Compound 1 in plasma were determined by LC-MS quantification.

[2] = test system: Methicillin Resistant Staphylococcus aureus (MRSA, ATCC 33591); assay: Neutropaenic mouse thigh infection model, further experiment; assay type: in vivo, mice; conditions: IV 2 and 14 h after infection; 2.5-50 mg/Kg; thigh at 26 h
Protocol: In a further experiment groups of 6 male ICR mice weighing 24±2 g were used. Test animals were immunosuppressed by 2 intraperitoneal injections of cyclophosphamide, the first at 150 mg/Kg 4 days before infection (day-4) and the second at 100 mg/Kg 1 day before infection (day-1). On day 0, individual animals were inoculated intramuscularly (IM) into the right thigh of test animals with 1.5×10^5 CFU/mouse of Methicillin Resistant Staphylococcus aureus (MRSA, ATCC 33591) suspended in 100 μL of sterile PBS, pH 7.4. Vehicle and test substances were administered intravenously (IV) at a dose volume of 8 mL/Kg, 2 and 14 hours after thigh infection. Example 1 was dissolved in 5% dextrose/1 mM potassium phosphate, pH 5.0 and administered at doses of 2.5, 5, 10, 15, 25 and 50 mg/Kg. At 26 hours after inoculation, muscle of the right thigh of each test mouse was harvested. From an additional group with no treatment, muscle of the right thigh was harvested at 2 hours after inoculation for the basal CFU determination. The removed muscle tissues were then homogenized in 3-4 mL of PBS, pH 7.4 with a ceramic mortar. Homogenates of 0.1 mL were used for serial 10-fold dilutions and plated on Mueller Hinton broth in 1.5% Bacto agar for CFU determination.

[3] = test system: Staphylococcus aureus methicillin resistant ATCC 33591; assay: Mouse bacteraemia model, SC dosing; assay type: in vivo, mice
Protocol: In Vivo Efficacy of Compounds in a Mouse Bacteraemia Model
Groups of 6 male CD-1 (Crl.) derived mice weighing 24±2 g were used. Mice were inoculated intraperitoneally (IP) with an LD90-100 of Staphylococcus aureus methicillin resistant ATCC 33591 (1.1×10^7CFU/mouse) in 0.5 mL of BHI broth containing 5% mucin. Example 1 and vancomycin were dissolved in 15% HPbetaCD/4.4% glucose/0.5 mM KH2PO4, pH 5.0 and doses of 1, 3, 5, 10 and 20 mg/Kg were administered subcutaneously (SC) to test animals at 0, 2 and 24 hour(s) after bacteria challenge. The dosing volume was 5 mL/Kg. Mortality was recorded once daily for 7 days. The ED50 for each compound was determined by nonlinear regression.

[4] = Laser beam light scattering through cuvette (FIG. 1); assay type: physicochemical; conditions: naked eye
Excerpt: FIG. 1 is a series of photographs of two control formulations (glucose and vancomycin) and a formulation of Example 1, after a laser beam has been shone through a cuvette containing the same. […] In each case the presence or absence of the beam in the samples is clearly visible to the naked eye.
The colloid formulation according to the present invention is distinguished from a solution by the fact that a polarised beam of light, such as from laser, shone through the formulation, for example held in a 1 cm cuvette, causes the formulation to scatter light visible to the naked eye therefrom, for example in the form of a beam. Whilst not wishing to be bound by theory, this luminous path may be known as a Tyndall beam or Rayleigh scatter, both of which are a result of the scattering of the light by the particles in the colloid.

[5] = test system: Methicillin Resistant Staphylococcus aureus (MRSA, ATCC 33591); assay: Neutropaenic mouse thigh infection model; assay type: in vivo, mice; conditions: for antimicrobial effect: 5, 10, 20, 30 and 40 mg/Kg x2 IV
Protocol: Efficacy of Compounds in a Neutropaenic Mouse Thigh Infection Model.
In vivo efficacy of compounds of the present invention in the treatment of bacterial tissue infections was evaluated using a neutropaenic mouse thigh model.
Groups of 6 male ICR mice weighing 24±2 g were used. Test animals were immuno-suppressed by 2 intraperitoneal injections of cyclophosphamide, the first at 150 mg/Kg 4 days before infection (day-4) and the second at 100 mg/Kg 1 day before infection (day−1). On day 0, individual animals were inoculated intramuscularly (IM) into the right thigh of test animals with 1.15×10^5 CFU/mouse of Methicillin Resistant Staphylococcus aureus (MRSA, ATCC 33591) suspended in 100 μL of sterile PBS, pH 7.4. Vehicle and test substances were administered intravenously (IV) at a dose volume of 6 mL/Kg, 2 and 14 hours after thigh infection. Example 1 and vancomycin were dissolved in 15% hydroxypropyl-beta-cyclodextrin/4.4% glucose/1.5 mM potassium phosphate buffer, pH 7.0 and administered at doses of 5, 10, 20, 30 and 40 mg/Kg. At 26 hours after inoculation, muscle of the right thigh of each test mouse was harvested. From an additional group with no treatment, muscle of the right thigh was harvested at 2 hours after inoculation for the basal CFU determination. The removed muscle tissues were then homogenized in 3-4 mL of PBS, pH 7.4 with a ceramic mortar. Homogenates of 0.1 mL were used for serial 10-fold dilutions and plated on Mueller Hinton broth in 1.5% Bacto agar for CFU determination.

[6] = test system: Staphylococcus aureus methicillin resistant ATCC 33591; assay: Mouse bacteraemia model, second experiment, IV dosing; assay type: in vivo, mice; conditions: for number of deaths: 7 days, groups of 6; for survival of mice after 7 days: 1, 3, 5 and 10 mg/kg IV
Protocol: In a second experiment Groups of 6 male CD-1 (Crl.) derived mice weighing 24±2 g were used. Mice were inoculated intraperitoneally (IP) with an LD90-100 of Staphylococcus aureus methicillin resistant ATCC 33591 (1.35×10^8 CFU/mouse) in 0.5 mL of BHI broth containing 5% mucin. Example 1 was dissolved in 5% dextrose/1.5 mM potassium phosphate, pH 5.0 and doses of 1, 3, 5 and 10 mg/Kg were administered intravenously (IV) to test animals at 1 and 13 hour(s) after bacteria challenge. The dosing volume was 5 mL/Kg. Mortality was recorded once daily for 7 days.

Row | Compound | half-life [1] [h] | bacterial counts in the thigh tissue (FIG. 3) [2] | antimicrobial effect against S. aureus (MRSA) in mice ([3]; 3, 5, 10 and 20 mg/Kg x3, SC) | ED50 ([3]; Staphylococcus aureus, ATCC33591, SC at 0, 2 and 24 h after challenge, mortality over 7 days, nonlinear regression, read-out: estimated ED50) [mg/kg] | visibility of laser beam through formulation (light scattering) [4] | reductions of CFU/g ([5]; 30 mg/kg and above, x2 IV, thigh at 26 h) [fold] | antimicrobial effect [5] | reduction of CFU/g, highest attained ([5]; doses 5-40 mg/Kg x2 IV, thigh at 26 h) | number of deaths ([6]; 1 mg/kg IV at 1 and 13 h) | number of deaths ([6]; 3 mg/kg IV at 1 and 13 h) | number of deaths ([6]; 5 mg/kg IV at 1 and 13 h) | number of deaths ([6]; 10 mg/kg IV at 1 and 13 h) | survival of mice after 7 days [6] | survival rate ([3]; 3 mg/Kg, SC) [%] | increase in survival rate ([3]; 3, 5, 10 and 20 mg/Kg x3, SC) | estimated ED50 ([3]; SC at 0, 2 and 24 h after challenge, mortality over 7 days, nonlinear regression) [mg/kg] | reduction in CFU/g ([5]; 10 mg/kg and above, x2 IV, thigh at 26 h) [fold]
1 | CC[C@H](C)[C@@H]1NC(=O)[C@@H]2NC(=O)[C@H](CC(C)C)NC(=O)[C@H](NC(=O)[C@@H]3CSC[C@@H](N)C(=O)N[C@@H](CO)C(=O)NCC(=O)N[C@@H](Cc4c[nH]c5ccccc45)C(=O)N[C@@H](C(C)C)C(=O)N3)[C@H](C)SC[C@H](NC(=O)[C@H](CCC(=O)O)NC1=O)C(=O)NCC(=O)N[C@H]1C(=O)N[C@@H](CC(C)C)C(=O)N[C@@H](C(C)C)C(=O)N[C@@H](CS[C@H]2C)C(=O)N[C@@H](C)C(=O)N[C@H](C(=O)NCc2cc(Cl)cc(Cl)c2)CS[C@H]1C [Compound 1, Deoxyactagardine B (3,5-dichlorobenzylamine)monocarboxamide] | ~2 |  |  |  |  |  |  |  |  |  |  |  |  |  |  |  | 
2 | CN[C@H](CC(C)C)C(=O)N[C@H]1C(=O)N[C@@H](CC(N)=O)C(=O)N[C@H]2C(=O)N[C@H]3C(=O)N[C@H](C(=O)N[C@H](C(=O)O)c4cc(O)cc(O)c4-c4cc3ccc4O)[C@H](O)c3ccc(c(Cl)c3)Oc3cc2cc(c3O[C@@H]2O[C@H](CO)[C@@H](O)[C@H](O)[C@H]2O[C@H]2C[C@](C)(N)[C@H](O)[C@H](C)O2)Oc2ccc(cc2Cl)[C@H]1O [vancomycin, reference compound] |  | dose dependent reduction in the bacterial counts | significant antimicrobial effect | 3 | the beam is not visible | > 100 | significant antimicrobial effect | ≤ 1,000 fold | 5 | 3 | 1 | 0 | dose-dependent increase in survival |  |  |  | 
3 | Deoxyactagardine B (3,5-dichlorobenzylamine)monocarboxamide [Example 1] |  | dose dependent reduction in the bacterial counts | significant antimicrobial effect |  | the beam is visible |  | significant antimicrobial effect |  | 5 | 4 | 1 | 1 | dose-dependent increase in survival | 100 | at least 50% | 1.07 | > 1.000
